Structures can show the parent of a compound that is named as a salt.
Target: T1, Isoform 2 of Nuclear receptor ROR-alpha (Alpha-2) (Homo sapiens, UniProt P35398)
T1 sequence (P35398 whole entry): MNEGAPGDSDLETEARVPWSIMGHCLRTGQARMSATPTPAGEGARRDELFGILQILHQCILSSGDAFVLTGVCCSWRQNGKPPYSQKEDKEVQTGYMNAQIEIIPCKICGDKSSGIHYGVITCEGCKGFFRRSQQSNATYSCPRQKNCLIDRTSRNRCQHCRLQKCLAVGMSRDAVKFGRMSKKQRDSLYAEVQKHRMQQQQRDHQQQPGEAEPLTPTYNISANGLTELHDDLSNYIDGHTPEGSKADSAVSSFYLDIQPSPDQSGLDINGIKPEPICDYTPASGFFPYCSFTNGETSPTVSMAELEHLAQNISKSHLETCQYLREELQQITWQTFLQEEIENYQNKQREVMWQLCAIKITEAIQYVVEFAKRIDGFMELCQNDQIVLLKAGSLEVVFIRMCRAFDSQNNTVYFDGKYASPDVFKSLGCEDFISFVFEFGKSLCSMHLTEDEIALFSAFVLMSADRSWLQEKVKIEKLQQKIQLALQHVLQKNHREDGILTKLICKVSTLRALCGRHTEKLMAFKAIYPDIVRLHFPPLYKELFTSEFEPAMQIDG
Test: RORA Gal4 reporter activation in CHO-K1 cells, dose response, counter-screen for SF-1 activator project, cell-based, Gal4-RORA LBD, luciferase luminescence (AID 675)

[1] = inactive by the depositor's call

Structure (SMILES)	EC50 [nM]	EC50 [1] [nM]
O=c1c2ccccc2nnn1CSc1nnc(COc2ccc(Cl)cc2)n1Cc1ccco1 [3-[[5-[(4-chloranylphenoxy)methyl]-4-(furan-2-ylmethyl)-1,2,4-triazol-3-yl]sulfanylmethyl]-1,2,3-benzotriazin-4-one]	3690	–
COc1cccc(C(=O)Nc2cccc(-c3nnc(-c4ccccc4)o3)c2)c1 [3-methoxy-N-[3-(5-phenyl-1,3,4-oxadiazol-2-yl)phenyl]benzamide]	1730	–
COc1ccc(-c2nc3c(Br)c(N)c(Br)cc3o2)cc1 [4,6-bis(bromanyl)-2-(4-methoxyphenyl)-1,3-benzoxazol-5-amine]	693	–
c1ccc2nc3c(nc2c1)c1ccccc1n3CCN1CCOCC1 [4-(2-indolo[3,2-b]quinoxalin-6-ylethyl)morpholine]	–	11300
COc1ccc(CNc2ccc(C(=O)O)cc2)cc1 [4-(p-anisylamino)benzoic acid]	1500	–
CCCOC(=O)c1ccc(NC(=O)C2CCCO2)cc1 (stereo unspecified) [4-(tetrahydrofuran-2-carbonylamino)benzoic acid propyl ester]	> 3670	–
COc1cccc2c(O)c(C(=O)NCc3cccs3)cnc12 [4-Hydroxy-8-methoxy-quinoline-3-carboxylic acid (thiophen-2-ylmethyl)-amide]	3120	–
Cc1cccnc1Nc1nc(-c2ccc(O)cc2O)cs1 [4-[2-(3-Methyl-pyridin-2-ylamino)-thiazol-4-yl]-benzene-1,3-diol]	1890	–
CC(C)(CC(=O)O)Cc1nc(-c2ccc(Cl)cc2)no1 [4-[3-(4-chlorophenyl)-1,2,4-oxadiazol-5-yl]-3,3-dimethyl-butanoic acid]	> 11000	–
CCOC(=O)N1CCN(S(=O)(=O)c2ccc(C(=O)Nc3sc4c(c3C#N)CCC4)cc2)CC1 [4-[4-[(3-cyano-5,6-dihydro-4H-cyclopenta[b]thiophen-2-yl)carbamoyl]phenyl]sulfonylpiperazine-1-carboxylic acid ethyl ester]	636	–
COC(=O)c1ccc(C(=O)C(C#N)c2nc3ccccc3s2)cc1 (stereo unspecified) [4-[(2Z)-2-(3H-1,3-benzothiazol-2-ylidene)-2-cyano-1-oxoethyl]benzoic acid methyl ester]	1610	–
Cc1ccc(C(=O)Nc2ncc(Cc3ccccc3)s2)o1 [5-Methyl-furan-2-carboxylic acid (5-benzyl-thiazol-2-yl)-amide]	> 407	–
Cc1ccc(C(=O)Nc2ncc(Cc3ccc(F)cc3)s2)o1 [5-Methyl-furan-2-carboxylic acid [5-(4-fluoro-benzyl)-thiazol-2-yl]-amide]	> 407	–
O=C(Nc1nccs1)c1ccc(COc2ccc(F)cc2)o1 [5-[(4-fluoranylphenoxy)methyl]-N-(1,3-thiazol-2-yl)furan-2-carboxamide]	4710	–
Nc1c(C(=O)NCc2ccco2)nnn1-c1ccccc1 [5-amino-N-(2-furanylmethyl)-1-phenyl-4-triazolecarboxamide]	> 3670	–
CC1(C)Cc2c(sc(NC(=O)c3ccc(Br)o3)c2C#N)CO1 [5-bromanyl-N-(3-cyano-5,5-dimethyl-4,7-dihydrothieno[2,3-c]pyran-2-yl)furan-2-carboxamide]	752	–
COc1ccc(OC)c2sc(NC(=O)c3ccc(Br)s3)nc12 [5-bromanyl-N-(4,7-dimethoxy-1,3-benzothiazol-2-yl)thiophene-2-carboxamide]	> 99000	–

Structure (SMILES)	EC50 [nM]	EC50 [1] [nM]
O=C(Nc1cccc(-c2nnc(-c3ccccc3)o2)c1)c1ccc(Br)o1 [5-bromanyl-N-[3-(5-phenyl-1,3,4-oxadiazol-2-yl)phenyl]furan-2-carboxamide]	8560	–
CCc1ccc(C(=O)NCc2cccs2)s1 [5-ethyl-N-(2-thenyl)thiophene-2-carboxamide]	> 3670	–
c1ccc(-c2cnc(CSc3nnc4ccccn34)o2)cc1 [5-phenyl-2-([1,2,4]triazolo[4,3-a]pyridin-3-ylsulfanylmethyl)-1,3-oxazole]	> 1220	–
CCN(CC)c1ccc(-n2cc3c(=O)n(C)c(=O)n(C)c3c2)cc1 [6-(4-Diethylamino-phenyl)-1,3-dimethyl-1,6-dihydro-pyrrolo[3,4-d]pyrimidine-2,4-dione]	–	12500
COc1ccc(-c2cn3ccsc3n2)cc1 [6-(4-methoxyphenyl)imidazo[2,1-b][1,3]thiazole]	283	–
CCOC(=O)c1cnc2c(-c3ccccc3)cnn2c1N [7-amino-3-phenyl-6-pyrazolo[1,5-a]pyrimidinecarboxylic acid ethyl ester]	356	–
COCC(C)NC(=O)c1noc2c1CCc1cc(OC)ccc1-2 (stereo unspecified) [7-methoxy-N-(1-methoxypropan-2-yl)-4,5-dihydrobenzo[g][1,2]benzoxazole-3-carboxamide]	1270	–
CCc1nc(Nc2ccc3nccnc3c2)c2oc3ccccc3c2n1 [(2-ethylbenzofuro[3,2-d]pyrimidin-4-yl)-quinoxalin-6-yl-amine;hydrochloride]	> 99000	–
CC(=Nc1cccc(O)c1)c1sc2ccccc2c1O [(2Z)-2-[1-(3-hydroxyanilino)ethylidene]-1-benzothiophen-3-one]	> 3670	–
COC(=O)CSc1nc2cc(C)ccc2cc1C#N [(3-Cyano-7-methyl-quinolin-2-ylsulfanyl)-acetic acid methyl ester]	> 1220	–
Cc1ccc(C2C(C(=O)c3cnn(-c4ccccc4)c3C)C(=O)C(=O)N2CCN(C)C)o1 (stereo unspecified) [(4E)-1-[2-(dimethylamino)ethyl]-4-[hydroxy-(5-methyl-1-phenyl-4-pyrazolyl)methylidene]-5-(5-methyl-2-furanyl)pyrrolidine-2,3-dione]	4130	–
CC(=NC1CCCC1)c1c(C)[nH]n(-c2nc3ccccc3s2)c1=O [(4Z)-2-(1,3-benzothiazol-2-yl)-4-[1-(cyclopentylamino)ethylidene]-5-methylpyrazol-3-one]	> 1220	–
Cn1c(-c2ccc3c(c2)OCO3)cnc1NCc1ccccc1 [(5-Benzo[1,3]dioxol-5-yl-1-methyl-1H-imidazol-2-yl)-benzyl-amine]	11200	–
Fc1ccc2nc(Nc3nc4c(s3)CCCC4)sc2c1 [(6-fluoro-1,3-benzothiazol-2-yl)-(4,5,6,7-tetrahydro-1,3-benzothiazol-2-yl)amine]	639	–
CC(=N)C(C#N)C(=O)CSc1ccc2c(c1)OCCO2 (stereo unspecified) [(E)-3-amino-2-[2-(2,3-dihydro-1,4-benzodioxin-6-ylsulfanyl)acetyl]but-2-enenitrile]	1160	–
O=C(Nc1ccc(NC(=O)c2cccs2)cn1)c1ccco1 [Furan-2-carboxylic acid {5-[(thiophene-2-carbonyl)-amino]-pyridin-2-yl}-amide]	2710	–
COc1ccccc1Nc1nc2ccccc2[nH]1 [N-(2-methoxyphenyl)-1H-benzimidazol-2-amine]	1620	–

Now from value to compound:

EC50 [nM]	EC50 [1] [nM]	Structure (SMILES)
556	–	CC(=O)Nc1ccc(-c2cc3ccccc3o2)cc1 [MLS000036584]
596	–	O=C(Nc1nnc(C2CCCCC2)s1)c1ccco1 [MLS000039439]
2930	–	CC(=O)c1c(C)[nH]c(C(=O)NCCc2cccc(C)c2)c1C [MLS000045238]
> 99000	–	O=C(NCC1CCCO1)c1coc2nc3ccccc3nc12 (stereo unspecified) [MLS000046703]
446	–	O=C(Nc1ccc2c(c1)OCO2)c1ccc(COc2ccc3c(c2)CCC3)o1 [MLS000048173]
2460	–	COc1ccc(CCC(=O)Nc2ccc(-c3noc(-c4ccc(OC)c(OC)c4)n3)cc2)cc1 [MLS000049572]
653	–	O=C(Nc1ccc(-c2cn3ccsc3n2)cc1)C1CC1 [MLS000053249]
> 99000	–	COc1ccc(NC(=O)c2ccc3c(c2)OCO3)cc1Cl [MLS000053302]
7320	–	CS(=O)(=O)c1ccc2nc(NC(=O)C3COc4ccccc4O3)sc2c1 (stereo unspecified) [MLS000056123]
480	–	O=C(Nc1ccc(CN2CCOCC2)cc1)c1cc2ccccc2o1 [MLS000062478]
2530	–	CC(C)(C)c1cc(NC(=O)C2CCCO2)no1 (stereo unspecified) [MLS000065845]
> 1220	–	O=C(NCc1ccco1)c1cc2c(s1)CCCCC2 [MLS000065859]
1570	–	CCOC(=O)c1cc2cc(OC)ccc2[nH]1 [MLS000071430]
1470	–	C=CCn1c(-c2ccccc2)c[nH]c1=S [MLS000071728]
736	–	CCOc1ccc(OCC)c(NC(=O)CSc2nc3c(c(=O)n(C)c(=O)n3C)n2C(C)C)c1 [MLS000072726]
4140	–	Cc1cnc(NC(=O)CSc2nnc(-c3ccccc3)o2)s1 [MLS000077990]
731	–	CCOC(=O)c1[nH]c2ccc(C)cc2c1N [MLS000079379]
551	–	Nc1nc2c(s1)CCc1c-2cnn1-c1ccccc1 [MLS000085948]
8140	–	Cc1cc(C(=O)Nc2sc3c(c2C#N)CCC(C(C)(C)C)C3)no1 (stereo unspecified) [MLS000087312]
> 99000	–	CN(C)C=Nc1ncnc2c1cnn2-c1ccc(C(F)(F)F)cn1 [MLS000087855]
9170	–	CCCc1cc(C(=O)Nc2ccccc2SC)no1 [MLS000116378]
1220	–	CC(=O)c1cccc(NC(=O)c2cnn3ccccc23)c1 [MLS000118777]
2160	–	CCOc1ccc(OCC)c(NC(=O)C2CCCN2S(=O)(=O)c2cccc3cccnc23)c1 (stereo unspecified) [MLS000119093]
747	–	CC(=O)Nc1ccc(-c2nc3c(C)cccc3[nH]2)cc1 [SMR000001134]
10800	–	Cc1cc2n(n1)C(c1ccc(N(C)C)cc1)Nc1ccccc1-2 (stereo unspecified) [SMR000015202]
> 99000	–	CC1(C)CC(=O)C(=CNc2ccccc2)C(=O)C1 [SMR000054233]
3720	–	O=c1[nH]c2ccccc2nc1-c1cccs1 [SMR000068248]
